From ChEMBL document CHEMBL5584321, “Chemoenzymatic Synthesis of DNP-Functionalized FGFR1-Binding Peptides as Novel Peptidomimetic Immunotherapeutics for Treating Lung Cancer” (J Med Chem, 2024)
Calls of active or inactive are those of the source. The rule behind the calls is not given here. Where a SMILES comes first, the peptide text is derived from it. The star is where a group is joined. X1 = O=[N+]([O-])c1ccc(OCCOCCOCCOCCOCCOCCN*)c([N+](=O)[O-])c1

Assays:
[1] = Half life in immunized Sprague-Dawley rat at 1.5 mg/kg,SC administration measured upto 24 hrs by fluorescence based microplate reader assay; type: ADME, organism-based; conditions: in vivo
[2] = Tmax in immunized Sprague-Dawley rat at 1.5 mg/kg,SC administration measured upto 24 hrs by fluorescence based microplate reader assay; type: ADME, organism-based; conditions: in vivo
[3] = Cmax in immunized Sprague-Dawley rat at 1.5 mg/kg,SC administration measured upto 24 hrs by fluorescence based microplate reader assay; type: ADME, organism-based; conditions: in vivo
[4] = AUC in immunized Sprague-Dawley rat at 1.5 mg/kg,SC administration measured upto 24 hrs by fluorescence based microplate reader assay; type: ADME, organism-based; conditions: in vivo
L6 [5] = assay: Antiproliferative activity against FGF2-induced rat L6 cells stably expressing human full-length FGFR1c assessed as inhibition of cell growth incubated for 36 hrs by CCK-8 assay; type: functional, cell-based
L6 [6] = assay: Antiproliferative activity against FGF2-induced rat L6 cells stably expressing human full-length FGFR1c assessed as inhibition of cell growth at 100 uM incubated for 36 hrs by CCK-8 assay relative to control; type: functional
L6 [7] = assay: Induction of apoptosis in FGF2-induced rat L6 cells stably expressing human full-length FGFR1c assessed as downregulation of BCL-2 expression at 50 uM incubated for 24 hrs by Western blotting analysis; type: functional, cell-based
L6 [8] = assay: Induction of apoptosis in FGF2-induced rat L6 cells stably expressing human full-length FGFR1c assessed as upregulation of cleaved PARP expression at 50 uM incubated for 24 hrs by Western blotting analysis; type: functional, cell-based
L6 [9] = assay: Binding affinity to FGFR1c in rat L6 cells assessed as increase in green fluorescence signal incubated for 1 hr by Alexa-488 staining based confocal fluorescence microscopic analysis; type: cell-based
L6 [10] = assay: Binding affinity to human full-length wild type FGFR1c stably expressed in rat L6 cells assessed as increase in green fluorescence signal incubated for 1 hr by Alexa-488 staining based confocal fluorescence microscopic analysis; type: cell-based
NCI-H1581 [11] = assay: Binding affinity to FGFR1c in human NCI-H1581 cells assessed as increase in green fluorescence signal incubated for 1 hr by Alexa-488 staining based confocal fluorescence microscopic analysis; type: cell-based
L6 [12] = assay: Binding affinity to human full-length wild type FGFR1c stably expressed in rat L6 cells assessed as increase in fluorescence signal by antibody recruiting based flow cytometry; type: cell-based
NCI-H1581 [13] = assay: Binding affinity to FGFR1c in human NCI-H1581 cells assessed as increase in fluorescence signal by antibody recruiting based flow cytometry; type: cell-based
L6 [14] = assay: Binding affinity to human full-length wild type FGFR1c stably expressed in rat L6 cells assessed as fluorescence intensity at 10 uM by antibody recruiting based flow cytometry; type: cell-based
NCI-H1581 [15] = assay: Binding affinity to FGFR1c in human NCI-H1581 cells assessed as fold change in fluorescence intensity at 10 uM by antibody recruiting based flow cytometry relative to Pep1; type: cell-based
L6 [16] = assay: Induction of cell lysis in rat L6 cells stably expressing human full-length FGFR1c at 1 uM incubated for 1 hr by complement dependent cytotoxicity based CCK-8 assay relative to control; type: functional
L6 [17] = assay: Induction of cell lysis in rat L6 cells at 1 uM incubated for 1 hr by complement dependent cytotoxicity based CCK-8 assay relative to control; type: functional
[18] = Toxicity in BALB/c mouse xenografted with human NCI-H1581 cells assessed as change in body weight at 20 mg/kg,SC administrated once daily for 12 days; type: organism-based; conditions: in vivo, 288 h, time 12 day
[19] = Toxicity in BALB/c mouse xenografted with human NCI-H1581 cells assessed as change in heart weight at 20 mg/kg,SC administrated once daily for 12 days; type: organism-based; conditions: in vivo, 288 h, time 12 day
[20] = Toxicity in BALB/c mouse xenografted with human NCI-H1581 cells assessed as change in liver weight at 20 mg/kg,SC administrated once daily for 12 days; type: organism-based; conditions: in vivo, 288 h, time 12 day
[21] = Toxicity in BALB/c mouse xenografted with human NCI-H1581 cells assessed as change in spleen weight at 20 mg/kg,SC administrated once daily for 12 days; type: organism-based; conditions: in vivo, 288 h, time 12 day
[22] = Toxicity in BALB/c mouse xenografted with human NCI-H1581 cells assessed as change in lung weight at 20 mg/kg,SC administrated once daily for 12 days; type: organism-based; conditions: in vivo, 288 h, time 12 day
[23] = Toxicity in BALB/c mouse xenografted with human NCI-H1581 cells assessed as change in kidney weight at 20 mg/kg,SC administrated once daily for 12 days; type: organism-based; conditions: in vivo, 288 h, time 12 day
[24] = Hepatotoxicity in BALB/c mouse xenografted with human NCI-H1581 cells assessed as change in AST level at 20 mg/kg,SC administrated once daily for 12 days; type: toxicity, organism-based; conditions: in vivo, 288 h, time 12 day
[25] = Renal toxicity in BALB/c mouse xenografted with human NCI-H1581 cells assessed as change in creatinine level at 20 mg/kg,SC administrated once daily for 12 days; type: organism-based; conditions: in vivo, 288 h, time 12 day
[26] = Toxicity in BALB/c mouse xenografted with human NCI-H1581 cells assessed as inflammation in spleen at 20 mg/kg,SC administrated once daily for 12 days by hematoxylin and eosin staining based analysis; type: organism-based; conditions: in vivo, 288 h, time 12 day
[27] = Toxicity in BALB/c mouse xenografted with human NCI-H1581 cells assessed as inflammation in lung at 20 mg/kg,SC administrated once daily for 12 days by hematoxylin and eosin staining based analysis; type: organism-based; conditions: in vivo, 288 h, time 12 day
[28] = Toxicity in BALB/c mouse xenografted with human NCI-H1581 cells assessed as inflammation in kidney at 20 mg/kg,SC administrated once daily for 12 days by hematoxylin and eosin staining based analysis; type: organism-based; conditions: in vivo, 288 h, time 12 day
[29] = Toxicity in BALB/c mouse xenografted with human NCI-H1581 cells assessed as cell necrosis in heart at 20 mg/kg,SC administrated once daily for 12 days by hematoxylin and eosin staining based analysis; type: organism-based; conditions: in vivo, 288 h, time 12 day
[30] = Toxicity in BALB/c mouse xenografted with human NCI-H1581 cells assessed as cell necrosis in liver at 20 mg/kg,SC administrated once daily for 12 days by hematoxylin and eosin staining based analysis; type: organism-based; conditions: in vivo, 288 h, time 12 day
[31] = Toxicity in BALB/c mouse xenografted with human NCI-H1581 cells assessed as cell necrosis in spleen at 20 mg/kg,SC administrated once daily for 12 days by hematoxylin and eosin staining based analysis; type: organism-based; conditions: in vivo, 288 h, time 12 day
[32] = Toxicity in BALB/c mouse xenografted with human NCI-H1581 cells assessed as cell necrosis in lung at 20 mg/kg,SC administrated once daily for 12 days by hematoxylin and eosin staining based analysis; type: organism-based; conditions: in vivo, 288 h, time 12 day
[33] = Toxicity in BALB/c mouse xenografted with human NCI-H1581 cells assessed as cell necrosis in kidney at 20 mg/kg,SC administrated once daily for 12 days by hematoxylin and eosin staining based analysis; type: organism-based; conditions: in vivo, 288 h, time 12 day
NCI-H1581 [34] = assay: Antitumor activity against human NCI-H1581 cells xenografted BALB/c mouse model assessed as induction of apoptosis by measuring increase in TUNEL positive cells at 20 mg/kg,SC administrated once daily for 12 days; type: functional, organism-based; conditions: time 12.0 day
NCI-H1581 [35] = assay: Antitumor activity against human NCI-H1581 cells xenografted BALB/c mouse model assessed as inhibition of tumor proliferation by measuring decrease in Ki67 positive cells at 20 mg/kg,SC administrated once daily for 12 days; type: functional, organism-based; conditions: time 12.0 day
NCI-H1581 [36] = assay: Antitumor activity against human NCI-H1581 cells xenografted BALB/c mouse model assessed as tumor necrosis at 20 mg/kg,SC administrated once daily for 12 days by hematoxylin and eosin staining based analysis; type: functional, organism-based; conditions: time 12.0 day

`CC(C)C[C@H](NC(=O)[C@H](C)NC(=O)[C@@H](NC(=O)[C@H](Cc1ccc(O)cc1)NC(=O)[C@H](Cc1c[nH]c2ccccc12)NC(=O)[C@H](CO)NC(=O)[C@H](CO)NC(=O)[C@H](Cc1ccc(O)cc1)NC(=O)[C@H](CCCCN)NC(=O)[C@H](CCCNC(=N)N)NC(=O)[C@H](CO)NC(=O)[C@H](CCCNC(=N)N)NC(=O)[C@@H](N)Cc1ccc(O)cc1)C(C)C)C(=O)N[C@@H](CCCCN)C(=O)N[C@@H](CCCNC(=N)N)C(=O)N[C@@H](CC(C)C)C(=O)N1CCC[C@H]1C(=O)N[C@@H](CCC(=O)O)C(=O)N[C@H](C(=O)NCC(=O)NCC(=O)NCC(=O)NCCOCCOCCOCCOCCOCCOc1ccc([N+](=O)[O-])cc1[N+](=O)[O-])[C@@H](C)O` (H-YRSRKYSSWYVALKRLPETGGG-X1) showed a half-life [1] of 18.1 h, a Tmax [2] of 1.67 h and a Cmax [3] of 273 ng/mL. For the same compound, the AUC at 24 h [4] was 2600 ng·h/mL, the Activity (L6 [5]) was “Dose-Dependent Effect” and the inhibition at 100 µM (L6 [6]) was 100%. For the same compound, the Activity (L6 [7]) was “Active”, the Activity (L6 [8]) was “Active” and the Activity (L6 [9]) was “inactive”. For the same compound, the Activity (L6 [10]) was “Active”, the Activity (NCI-H1581 [11]) was “Active” and the Activity (L6 [12]) was “Dose-Dependent Effect”. The Activity (NCI-H1581 [13]) was “Dose-Dependent Effect”, the Flu intensity (L6 [14]) was 1.8 10^4No_unit and the fold change (FC) (NCI-H1581 [15]) was 36. The Activity (L6 [16]) was 45.8%, the Activity (L6 [17]) was “inactive” and the Activity [18] was “Non-Toxic”. The Activity [19] was “Non-Toxic”, the Activity [20] was “Non-Toxic” and the Activity [21] was “Non-Toxic”. For the same compound, the Activity [22] was “Non-Toxic”, the Activity [23] was “Non-Toxic” and the Activity [24] was “Non-Toxic”. For the same compound, the Activity [25] was “Non-Toxic”, the Activity [26] was “Non-Toxic” and the Activity [27] was “Non-Toxic”. For the same compound, the Activity [28] was “Non-Toxic”, the Activity [29] was “Non-Toxic” and the Activity [30] was “Non-Toxic”. The Activity [31] was “Non-Toxic”, the Activity [32] was “Non-Toxic” and the Activity [33] was “Non-Toxic”. For the same compound, the Activity (NCI-H1581 [34]) was “Active”, the Activity (NCI-H1581 [35]) was “Active” and the Activity (NCI-H1581 [36]) was “Active”.
